Experimental data taken from a melting point compilation (Tetko et al.; mined from patent text by program, amines drawn as free bases though some values may be those of a salt).

| melting point [°C] | SMILES |
| --- | --- |
| 209 to 212 | COc1ccc2cc3c(=O)n(C)cc(C(=O)NCCN(C)C)c3nc2c1Cl |
| 92 to 94 | CC(C(SC(=S)N(C)C)c1ccccc1)[N+](=O)[O-] (stereo not drawn) |
| 232 to 234 | CN(C)Cc1nnc2n1-c1ccc(Cl)cc1N(c1ccccc1)C(=O)C2 |
| 147 to 148 | Cn1cc(-c2ccccc2)c(=O)c(-c2cccc(CC3CCCCC3)c2)c1 |
| 124 to 126 | COc1c(F)cc(Cn2cnnc2S)cc1F |
| 211 to 212 | CSc1c(O[C@H]2CC[C@@H](N3C(=O)c4ccccc4C3=O)CC2)ccc2[nH]ncc12 |
| 100 to 101 | NC(=O)C(F)(F)C1(c2ccc(Cl)cc2Cl)CO1 (stereo not drawn) |
| 122 to 123 | C=CCc1c(-c2cc(=O)c3c(O)c(CC=C)c(O)c(CC=C)c3o2)ccc(OC)c1O |
| 192 to 195 | Cc1ccccc1-c1cnc2c(C(F)(F)F)cccc2c1-c1cccc(NC(=O)Nc2ccccc2)c1 |
| 154 to 156 | ON=C(c1ccccc1)c1ccc(OCCCCOc2ccc(C(=NO)c3ccccc3)cc2)cc1 |
| > 250 | Cn1ncc(C(=O)O)c1C(=O)Nc1ccn2nc(N3CCCC3)nc2c1 |
| 141 to 143 | c1ccc(-c2nc3c([nH]2)Cc2ccccc2-3)cc1 |
| 140 | COC(=O)c1cnc2c(O)cccc2c1 |
| 283 to 286 | Cc1[nH]c(=O)[nH]c1C(=O)c1ccc(N2CCOCC2)cc1 |
| 74 | CCn1c(=O)n(/C(C)=C\SC)c2ccccc21 |
| 145 to 148 | C[C@@H]([C@@H](O)c1ccc(OCc2ccccc2)cc1)N1C2CCC1CC(=Cc1ccccc1)C2 (relative stereo) |
| 76 to 77 | N#CC1=CCN(c2ncccc2F)CC1 |
| 189 to 191 | CCCCSc1ccc(-c2cc3ccccc3[nH]2)cc1 |
| 71 to 73 | COc1ccc2c(c1)C(=O)CC(C)(C)O2 |
| 111 to 114 | Cn1nc2nnsc2c1C#N |
| 58 to 60 | CCCCNC(=O)C1CC(C)(C)NC(C)(C)C1=NO (stereo not drawn) |
| 200 to 201 | O=C(NCc1ccc(Cl)cc1)c1cc2c3c(cc(CN4CCOCC4)cn3c1=O)CCC2 |
| 60.5 to 61 | CCCCOc1cc(CCCC(=O)O)n(Cc2ccc(Cl)cc2Cl)n1 |
| 145 to 147 | CCC(Oc1ccccc1Cl)C(=O)OC1CC(O)C=C2C=CC(C)C(CCC3CC(O)CC(=O)O3)C21 (mixture of isomers) |

| melting point [°C] | SMILES |
| --- | --- |
| 118 to 120 | Clc1ccc2c(c1)C=C(n1ccnc1)CO2 |
| 168 | Cc1ccc(CN(C)CCOc2ccc(NC(=O)c3cccc4c(=O)c5ccccc5[nH]c34)cc2)cc1 |
| 226 to 229 | CCn1c(=O)c(CC(=O)O)cc2ccc(O)cc21 |
| 189 to 191 | NC(=O)C(Sc1ccccc1)c1cccc(C(=O)c2ccc(Cl)cc2)c1N (stereo not drawn) |
| 231 to 233 | CNC(=O)c1ccc(CCN2CC=C(c3c[nH]c(-c4ccc(F)cc4)c3-c3ccncc3)CC2)cc1 |
| 48.5 to 49.5 | CCCCC#CCC#CCC#CCCCCCCC(=O)O |
| 199 | CN(C)CC(=O)NCc1cccc(-c2csc(N=C(N)N)n2)n1 |
| 123 | NC(=O)c1ccc(F)c2c1OCC(N(CCCc1c[nH]c3ccc(F)cc13)CC1CC1)C2 (stereo not drawn) |
| 107 to 108 | COc1ccccc1N1CCN(CCCC2CCc3onc(-c4ccc(F)cc4)c3C2=O)CC1 (stereo not drawn) |
| 112 to 114 | O=C(CN1CCC(Cc2ccccc2)CC1)Nc1cccc(NCc2ccccc2)c1 |
| 167 to 169 | COC(=O)c1ccc2c(c1)Sc1ccc(C(C)N(O)C(N)=O)cc1CC2 (stereo not drawn) |
| 58 to 62 | O=C(CC(F)=C(F)F)Oc1ccc([N+](=O)[O-])cc1 |
| 152 to 156 | COc1ccc(C(N)=O)c(N)c1 |
| 100 to 105 | COc1cccc(-c2nc3cc(C4=NNC(=O)SC4C)ccc3n2CC(C)C)c1 (stereo not drawn) |
| 163 to 165 | COc1ccc2c(c1)COc1ccc(CC(=O)O)cc1C2=O |
| 132 to 133 | CCS(=O)(=O)Nc1c(C)c(C)c2c(c1C)C(c1ccc(C(C)C)cc1)CO2 (stereo not drawn) |
| 138 to 140 | OC1(c2nccc3ccccc23)CCNCC1 |
| 59 to 61 | CC(C)c1nc(COC(=O)N[C@@H](C)C(=O)N[C@@H](Cc2ccccc2)C[C@H](O)[C@H](Cc2ccccc2)NC(=O)OCc2cncs2)cs1 |
| 123 to 126 | CC(C)(C)NCC(O)COc1ccc(C=O)cc1 (stereo not drawn) |
| 101 | COC(=O)c1cc2ccc(OC)cc2n1CCN1CCC(N)CC1 |
| 231 to 237 | O=C1COc2cc3[nH]c(C(=O)O)cc3cc2N1 |
| 96.7 | O=Cc1cc(C(=O)c2ccccc2)ccc1[N+](=O)[O-] |
| 319 to 320 | Cc1cnc2[nH]cc(/C=C3\N=C(NCC4CC4)NC3=O)c2c1 |
| 109 to 110 | CCCCc1ccc(-c2ncc(C#N)cn2)cc1 |

| melting point [°C] | SMILES |
| --- | --- |
| 191 | COc1ccc(S(=O)(=O)N2C(=O)C(OC(=O)Oc3ccccc3)(c3ccccc3C(F)(F)F)c3cc(Cl)ccc32)c(OC)c1 (stereo not drawn) |
| > 280 | CCOC(=O)c1ccc(-c2[nH]nc3c2C(=O)c2c(NC(N)=O)cccc2-3)s1 |
| 88 to 89 | CN(Cc1ccc(N)cc1)C1CCSCC1 |
| 147 to 148 | CCCC(C)c1nn(-c2ccc(C(F)(F)F)cn2)cc1CCCOc1c(C)cccc1CC(=O)O (stereo not drawn) |
| 250 to 251 | CC(C)(CCc1nnn[nH]1)c1ccc(C(=O)Nc2cn3cc(C(F)(F)F)ccc3n2)cc1 |
| 182 to 185 | CCOC(=O)C(C#N)=C1CCN(c2ccc(N3C[C@H](CNC(C)=S)OC3=O)cc2F)CC1 |
| 124 to 130 | CC(C)(C)C(=O)N[C@@H](Cc1ccccc1)C(=O)N[C@@H](Cc1ccccc1)C(=O)NC(CO)Cc1c[nH]cn1 (stereo partly drawn) |
| 72 to 74 | CCC(=NO)C(C)(C)NCCCN |
| 154 to 157 | CCOC(=O)CCNC(=O)CCNC(=O)c1csc(NC(=N)N)n1 |
| 86 to 87 | C1=C(CCC2=Cc3ccccc32)c2ccccc21 |
| 276 to 277 | O=c1[nH]c2ncc(-c3ccc(O)cc3)nc2n1CCC1CCOCC1 |
| 341 to 343 | Cn1nc(-c2cnc3[nH]cc(C(=O)NC4CCCC4)c3n2)c2ccc(Cl)cc21 |
| 133 to 134 | Cc1cccc(-c2nc(-c3ccc(S(C)=O)cc3)sc2-c2cc(C)nc(C)c2)c1 (stereo not drawn) |
| 98 to 101 | Nc1ncc(Cl)c(CN2CCCC2)c1Cl |
| 37 to 38 | Cc1c(Cl)n(C)n(C)c1=O |
| 181 to 182 | COc1ccc(C(=O)CCC(=O)c2ccc(OC)c(OC)c2)cc1OC |
| 112 to 113 | CN1C(=O)SC(=C(CO)c2cccc3ccccc23)C1=O |
| 98 to 99 | CC(C)(C)OC(=O)C(Cc1ccccc1)c1ccc([N+](=O)[O-])cc1 (stereo not drawn) |
| 128 to 130 | O=C(Nc1ccc([N+](=O)[O-])cc1Cl)OCCCl |
| 180 to 182 | Clc1ccc2c(c1)C(n1ccnc1)c1ccccc1CO2 (stereo not drawn) |
| > 230 | N#Cc1ccc(-n2c(=O)cc(C(F)(F)F)n(N)c2=O)cc1O |
| 153 to 162 | O=C(CBr)c1ccc(-c2ccc([N+](=O)[O-])cc2)o1 |

| SMILES | melting point [°C] |
| --- | --- |
| COc1ccc(CCCC2(Br)C(=O)NC(=O)NC2=O)cc1 | 113 to 114 |
| CC1CC(C)(CO)CN1c1ccc(C#N)c2ccccc12 (stereo not drawn) | 100 to 101 |
| NC(=O)c1ccc(Cl)c([N+](=O)[O-])c1N1CC1 | 216 |
